In US20070099900A1, “Methods of modulating neurotrophin-mediated activity” (PainCeptor Pharma Corporation, priority 2005, published 2007):

Columns and labels:
[1] = test system: PC12 (TrkA & p75); experiment: 125I-NGF binding displacement in PC12 cells; set-up: species or system rat; conditions: for NGF binding displacement, dose-response curve: PC12 cells expressing TrkA and p75
Protocol: The method for acquiring the PC12 data described in Table 1 is described herein in Example 1. Each experiment was done at least once with an n value of 4 for each data point. (n/a=not acquired)
All cells were incubated at 37° C. in 5% CO2. PC12 cells were maintained in RPMI-1640 medium supplemented with 10% fetal bovine serum (FBS). A875 human melanoma cells were maintained in DMEM with 10% FBS. HEK 293 cells were stably transfected with human TrkA plasmid (see below) and maintained in DMEM with 10% FBS and G418 (600 μg/mL) for selection.
NGF binding was evaluated using methods familiar to those who are skilled in the art. Briefly, cells expressing one or both NGF receptors (PC12: TrkA+p75; A875: p75 alone; HEK_TrkA: TrkA alone) were harvested by replacing the medium with calcium-magnesium free balanced salt (Grey's) solution and incubating at 37° C. for 15 min. For NGF binding, cells were resuspended at a concentration of 2×10^6 cells/mL in HEPES-Krebs-Ringer (HKR) buffer (10 mM HEPES; 125 mM NaCl; 4.8 mM KCl; 1.3 mM CaCl2; 1.2 mM MgSO4; 1.2 mM KH2PO4; 1 mg/ml BSA; 1 mg/ml glucose; pH 7.4) and exposed to ^125I-NGF (˜0.1 nM) in the presence or absence of varying concentrations of the compound. Non-specific binding was determined for reference by incubating ^125I-NGF with an excess of non-radioactive NGF in the abence of compound. Following a two-hour incubation period at 4° C., ^125I-NGF bound to the cells was quantified in a gamma radiation counter following separation from unbound NGF by filtration or centrifugation through glycerol (10% in HKR). Inhibition of binding was calculated as a percent of the specific binding (calculated as the differential between ^125I-NGF binding in the absence and presence of an excess of non-radioactive NGF without compound). Dose-response inhibition curves were typically generated with seven concentrations of a given compound, with three replicates for each concentration. For most compounds, multiple dose-response curves were generated.
The IC50 data shown in Table 1 were acquired using the procedure described herein using PC12 cells.

[2] = test system: NGF-induced Erk 1/2 phosphorylation in PC12 cells; experiment: NGF-induced Erk 1/2 phosphorylation, Western blot; format: cell-based, rat; conditions: NGF 5 ng/mL
Protocol: This assay is useful for establishing that the compounds of the invention are functional NGF antagonists, not receptor agonists (an agonist could conceivably block NGF binding but actually activate the receptor). Erk 1/2 is a kinase activated down stream of TrkA and is a well studied member of the NGF-induced signal transduction cascade.
PC12 cells expressing TrkA and p75 were acutely exposed to 5 ng/mL NGF (15 min; 37° C.; 5% CO2) that was pre-incubated (30 min; room temperature) with or without the compounds. Cells were lysed in Laemmli sample buffer (for SDS-PAGE) or a lysis buffer containing Triton X-100 (for ELISA). Following SDS-PAGE, proteins were electroblotted onto nitrocellulose and immunoprobed for phosphorylated Erk 1 and 2. Blocking and primary antibody incubations of immunoblots were performed in Tris-buffered saline-Tween (10 mM Tris, pH 8.0, 150 mM NaCl, and 0.2% Tween 20) supplemented with 5% (w/v) bovine serum albumin (BSA); secondary antibody incubations were performed in 5% (w/v) dried skim milk powder. Immunoreactive bands were detected by chemiluminescence.

[3] = Writhing Test (acetic acid abdominal contraction test); format: in vivo; conditions: mice
Protocol: The acetic acid abdominal contraction test (Martinez et al., Pain 1999; 81: 179) was used to determine the efficacy of different compounds in a model of acute visceral chemical nociception. […] Compound or vehicle was administered (i.p. or s.c.) 15-45 minutes prior to the acetic acid injection. Each episode of writhing is characterized by a lengthwise stretching of the torso with a concomitant arching of the back.
Statistical analysis was performed using Prism™ 4.01 software package (GraphPad, San Diego, Calif., USA). The difference in response levels between treatment groups and control vehicle group was analyzed using an ANOVA followed by Bonferroni's method for post-hoc pair-wise comparisons. A p value <0.05 was considered to be significant
Animals were treated with vehicle (VEH) or Compound 91 (5 mg/kg i.p.; [CMP 1] and 50 mg/kg i.p. [CMP 2])) 10-20 minutes before the intraperitoneal injection of acetic acid, as described in this example.

O=C(O)c1ccc(Cl)c(N2C(=O)c3ccc4c5c(ccc(c35)C2=O)C(=O)N(c2cc(C(=O)O)ccc2Cl)C4=O)c1 [Compound 18, 3-[7-(1-chloro-4-carboxy-phenyl)-1,3,6,8-tetraoxo-3,6,7,8-tetrahydro-1H-benzo[lmn][3,8]phenanthrolin-2-yl]-4-chloro-benzoic acid]
NGF binding displacement, dose-response curve [1]: effectively blocks NGF binding | PC12 (TrkA & p75) Single point (% max binding) Mean ([1]; compound concentration 50 μM): *** (0 > *** > 30)

O=C1c2ccc3c4c(ccc(c24)C(=O)N1c1ccc(S(=O)(=O)O)cc1)C(=O)N(c1ccc(S(=O)(=O)O)cc1)C3=O [Compound 54, 4-(1,3,6,8-Tetraoxo-7-(4-benzenesulfonic acid)-3,6,7,8-tetrahydro-1H-benzo[lmn][3,8]phenanthrolin-2-yl)-benzenesulfonic acid]
PC12 (TrkA & p75) Single point (% max binding) Mean ([1]; compound concentration 50 μM): *** (0 > *** > 30)

O=C(O)c1ccc(Cl)c(N2C(=O)c3ccc4c5c(ccc(c35)C2=O)C(=O)OC4=O)c1 [Compound 58, 4-Chloro-3-(1,3,6,8-tetraoxo-1,3,6,8-tetrahydro-2-oxa-7-aza-pyren-7-yl)-benzoic acid]
PC12 (TrkA & p75) Single point (% max binding) Mean ([1]; compound concentration 50 μM): *** (0 > *** > 30)

O=C(O)CCCN1C(=O)c2ccc3c4c(ccc(c24)C1=O)C(=O)N(c1cc(C(=O)O)ccc1Cl)C3=O [Compound 59, 3-[7-(3-Carboxy-propyl)-1,3,6,8-tetraoxo-3,6,7,8-tetrahydro-1H-benzo[lmn][3,8]phenanthrolin-2-yl]-4-chloro-benzoic acid]
PC12 (TrkA & p75) Single point (% max binding) Mean ([1]; compound concentration 50 μM): *** (0 > *** > 30)

O=C([O-])c1ccc2nc3c4ccc5c6c(ccc(c(=O)n3c2c1)c46)c(=O)n1c2cc(C(=O)[O-])ccc2nc51.[Na+].[Na+] [Compound 91]
Inhibition of NGF-induced Erk 1/2 phosphorylation [2]: inhibits NGF-induced Erk 1/2 phosphorylation | NGF binding displacement, dose-response curve [1]: effectively blocks NGF binding | Antinociceptive effect in the Writhing Test ([3]; 5 and 50 mg/kg i.p., p<0.01 vs vehicle): significant antinociceptive effects | Chemically-induced abdominal contractions (number in 30 minutes) ([3]; i.p., n=6, vehicle 58±4, dose of the value (5 or 50 mg/kg) not stated): 16±9

O=c1c2ccc3c4c(ccc(c24)c2nc4ccccc4n12)c(=O)n1c2ccccc2nc31.[K+] [Compound 92, 1,3,6-trioxo-1,2,3,6-tetrahydro-benzo[lmn]benzo[4,5]imidazo[2,1-b][3,8]diphenanthroline potassium salt]
PC12 (TrkA & p75) Single point (% max binding) Mean ([1]; compound concentration 50 μM): * (* > 50)

O=C(O)c1cccc(N2C(=O)c3ccc4c(=O)n5c6cc(C(=O)O)ccc6nc5c5ccc(c3c45)C2=O)c1 [Compound 93, 2-(3-Carboxy-phenyl)-1,3,6-trioxo-1,2,3,6-tetrahydro-benzo[lmn]benzo[4,5]imidazo[2,1-b][3,8]phenanthroline-9-carboxylic acid]
PC12 (TrkA & p75) Single point (% max binding) Mean ([1]; compound concentration 50 μM): ** (30 > ** > 50)

O=C(O)CCCN1C(=O)c2ccc3c4c(ccc(c24)C1=O)C(=O)OC3=O [Compound 94]
PC12 (TrkA & p75) Single point (% max binding) Mean ([1]; compound concentration 25 μM): *** (0 > *** > 30)

O=C(O)CCCN1C(=O)c2ccc3c(=O)n4c5cc(C(=O)O)ccc5nc4c4ccc(c2c34)C1=O [Compound 95, 2-(3-Carboxy-propyl)-1,3,6-trioxo-1,2,3,6-tetrahydro-benzo[lmn]benzo[4,5]imidazo[2,1-b][3,8]phenanthroline-9-carboxylic acid]
PC12 (TrkA & p75) Single point (% max binding) Mean ([1]; compound concentration 25 μM): * (* > 50)

O=C(O)c1ccc(Cl)c(N2C(=O)c3ccc4c(=O)n5c6ccccc6nc5c5ccc(c3c45)C2=O)c1 [Compound 98, 2-(5-Carboxy-2-chloro-phenyl)-1,3,6-trioxo-1,2,3,6-tetrahydro-benzo[lmn]benzo[4,5]imidazo[2,1-b][3,8]phenanthroline-9]
PC12 (TrkA & p75) Single point (% max binding) Mean ([1]; compound concentration 25 μM): *** (0 > *** > 30)

O=C(O)c1ccc(Cl)c(N2C(=O)c3ccc4c(=O)n5c6cc(Cl)ccc6nc5c5ccc(c3c45)C2=O)c1 [Compound 99, 2-(5-Carboxy-2-chloro-phenyl)-1,3,6-trioxo-1,2,3,6-tetrahydro-9-chloro-benzo[lmn]benzo[4,5]imidazo[2,1-b][3,8]phenanthroline]
PC12 (TrkA & p75) Single point (% max binding) Mean ([1]; compound concentration 10 μM): *** (0 > *** > 30)

O=C(O)c1ccc(Cl)c(N2C(=O)c3ccc4c(=O)n5c6cc([N+](=O)[O-])ccc6nc5c5ccc(c3c45)C2=O)c1 [Compound 100, 2-(5-Carboxy-2-chloro-phenyl)-1,3,6-trioxo-1,2,3,6-tetrahydro-9-nitro-benzo[lmn]benzo[4,5]imidazo[2,1-b][3,8]phenanthroline]
PC12 (TrkA & p75) Single point (% max binding) Mean ([1]; compound concentration 10 μM): *** (0 > *** > 30)

COc1ccc2nc3c4ccc5c6c(ccc(c(=O)n3c2c1)c64)C(=O)N(c1cc(C(=O)O)ccc1Cl)C5=O [Compound 101, 2-(5-Carboxy-2-chloro-phenyl)-1,3,6-trioxo-1,2,3,6-tetrahydro-9-methoxy-benzo[lmn]benzo[4,5]imidazo[2,1-b][3,8]phenanthroline]
PC12 (TrkA & p75) Single point (% max binding) Mean ([1]; compound concentration 10 μM): ** (30 > ** > 50)

COC(=O)c1ccc2nc3c4ccc5c6c(ccc(c(=O)n3c2c1)c64)C(=O)N(c1cc(C(=O)O)ccc1Cl)C5=O [Compound 102, Methyl-2-(5-Carboxy-2-chloro-phenyl)-1,3,6-trioxo-1,2,3,6-tetrahydro-benzo[lmn]benzo[4,5]imidazo[2,1-b][3,8]phenanthroline-9-carboxylic acid ester]
PC12 (TrkA & p75) Single point (% max binding) Mean ([1]; compound concentration 10 μM): * (* > 50)
